Measurements as given in patent US9822127B2, “GAK modulators as antivirals” (Katholieke Universiteit Leuven, priority 2014, dated 2017).
Converted amounts (≈) assume the structure as drawn. Like-named read-outs stand apart in the source and are kept apart here.

Legend:
GAK = target: T1, GAK (Homo sapiens, UniProt O14976); assay: GAK binding assay (T7 phage kinase competition binding)
T1 construct: made in house; host or cells: T7 phage grown in E. coli host derived from BL21
T1 sequence (O14976 1-1311): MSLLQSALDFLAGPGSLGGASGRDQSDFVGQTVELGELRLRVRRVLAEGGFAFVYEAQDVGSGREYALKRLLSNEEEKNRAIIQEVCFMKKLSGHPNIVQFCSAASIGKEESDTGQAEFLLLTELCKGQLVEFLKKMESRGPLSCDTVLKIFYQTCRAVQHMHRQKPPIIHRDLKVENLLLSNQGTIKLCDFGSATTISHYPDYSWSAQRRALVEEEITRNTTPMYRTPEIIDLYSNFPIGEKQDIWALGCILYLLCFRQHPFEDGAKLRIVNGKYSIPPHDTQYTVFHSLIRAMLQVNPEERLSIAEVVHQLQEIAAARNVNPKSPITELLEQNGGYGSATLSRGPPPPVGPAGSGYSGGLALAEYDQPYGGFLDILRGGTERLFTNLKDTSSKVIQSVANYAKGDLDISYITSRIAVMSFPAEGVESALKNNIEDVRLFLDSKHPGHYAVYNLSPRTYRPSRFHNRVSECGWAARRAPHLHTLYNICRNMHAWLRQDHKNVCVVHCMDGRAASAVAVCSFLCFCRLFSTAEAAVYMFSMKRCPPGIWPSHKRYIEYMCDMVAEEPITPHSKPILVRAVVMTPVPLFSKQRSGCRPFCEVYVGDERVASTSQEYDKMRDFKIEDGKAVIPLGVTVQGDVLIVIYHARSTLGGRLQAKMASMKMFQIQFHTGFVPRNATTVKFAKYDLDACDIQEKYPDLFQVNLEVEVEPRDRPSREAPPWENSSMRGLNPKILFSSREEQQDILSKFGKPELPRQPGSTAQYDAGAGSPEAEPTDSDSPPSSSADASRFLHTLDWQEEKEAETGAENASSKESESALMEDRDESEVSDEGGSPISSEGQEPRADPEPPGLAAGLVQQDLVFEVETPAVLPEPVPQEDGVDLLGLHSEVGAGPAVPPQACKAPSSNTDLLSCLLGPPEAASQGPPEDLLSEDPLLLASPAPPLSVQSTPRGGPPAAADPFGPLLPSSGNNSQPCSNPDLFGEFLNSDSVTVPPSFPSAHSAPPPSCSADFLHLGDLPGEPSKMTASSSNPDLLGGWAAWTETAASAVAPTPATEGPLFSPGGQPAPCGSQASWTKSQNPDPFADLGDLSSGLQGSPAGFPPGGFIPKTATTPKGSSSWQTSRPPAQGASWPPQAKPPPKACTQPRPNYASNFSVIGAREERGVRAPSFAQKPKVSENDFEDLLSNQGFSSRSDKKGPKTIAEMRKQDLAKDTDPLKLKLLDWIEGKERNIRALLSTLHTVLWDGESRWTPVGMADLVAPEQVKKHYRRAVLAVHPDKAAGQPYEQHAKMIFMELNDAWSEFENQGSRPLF

HCV RNA replication = HCV RNA replication by luciferase assays; assay type: cell-based; conditions: 72 hours postelectroporation, daily treatment
cell culture grown DENV = assay: DENV infection of Huh-7 cells, Renilla luciferase assay; assay type: cell-based; conditions: Dengue virus, Huh-7, 72 h, read-out: EC50, DENV infection
[1] = test system: SARS Coronavirus (Virus strain: Urbani); assay: microbe, parasite or virus in culture; assay type: cell-based
[2] = test system: VSV-EB GFP-reporter virus (VSV bearing surface glycoprotein of EBOV); assay type: cell-based, Ebola virus
EGFR = EGFR (Homo sapiens, UniProt P00533); assay: Affinity for EGFR / anti-EGFR activity; assay type: binding
Vero76 = conditions: African green monkey
in vitro = conditions: African green monkey
AP2M1 phosphorylation = AP2M1 phosphorylation by Western analysis in Huh-7.5 cells; assay type: cell-based, human; conditions: calyculin A, vs DMSO control
Huh-7.5 cells [3] = conditions: human
Huh-7.5 cells [4] = assay: Viability assay, alamarBlue, Huh-7.5 cells; conditions: HCVpp entry experiment
Huh-7 cells = assay: Viability assay, alamarBlue, DENV infected Huh-7 cells; conditions: 72 hours
[5] = Severe acute respiratory syndrome coronavirus, Vero 76

Sequence of EGFR (P00533 25-1210): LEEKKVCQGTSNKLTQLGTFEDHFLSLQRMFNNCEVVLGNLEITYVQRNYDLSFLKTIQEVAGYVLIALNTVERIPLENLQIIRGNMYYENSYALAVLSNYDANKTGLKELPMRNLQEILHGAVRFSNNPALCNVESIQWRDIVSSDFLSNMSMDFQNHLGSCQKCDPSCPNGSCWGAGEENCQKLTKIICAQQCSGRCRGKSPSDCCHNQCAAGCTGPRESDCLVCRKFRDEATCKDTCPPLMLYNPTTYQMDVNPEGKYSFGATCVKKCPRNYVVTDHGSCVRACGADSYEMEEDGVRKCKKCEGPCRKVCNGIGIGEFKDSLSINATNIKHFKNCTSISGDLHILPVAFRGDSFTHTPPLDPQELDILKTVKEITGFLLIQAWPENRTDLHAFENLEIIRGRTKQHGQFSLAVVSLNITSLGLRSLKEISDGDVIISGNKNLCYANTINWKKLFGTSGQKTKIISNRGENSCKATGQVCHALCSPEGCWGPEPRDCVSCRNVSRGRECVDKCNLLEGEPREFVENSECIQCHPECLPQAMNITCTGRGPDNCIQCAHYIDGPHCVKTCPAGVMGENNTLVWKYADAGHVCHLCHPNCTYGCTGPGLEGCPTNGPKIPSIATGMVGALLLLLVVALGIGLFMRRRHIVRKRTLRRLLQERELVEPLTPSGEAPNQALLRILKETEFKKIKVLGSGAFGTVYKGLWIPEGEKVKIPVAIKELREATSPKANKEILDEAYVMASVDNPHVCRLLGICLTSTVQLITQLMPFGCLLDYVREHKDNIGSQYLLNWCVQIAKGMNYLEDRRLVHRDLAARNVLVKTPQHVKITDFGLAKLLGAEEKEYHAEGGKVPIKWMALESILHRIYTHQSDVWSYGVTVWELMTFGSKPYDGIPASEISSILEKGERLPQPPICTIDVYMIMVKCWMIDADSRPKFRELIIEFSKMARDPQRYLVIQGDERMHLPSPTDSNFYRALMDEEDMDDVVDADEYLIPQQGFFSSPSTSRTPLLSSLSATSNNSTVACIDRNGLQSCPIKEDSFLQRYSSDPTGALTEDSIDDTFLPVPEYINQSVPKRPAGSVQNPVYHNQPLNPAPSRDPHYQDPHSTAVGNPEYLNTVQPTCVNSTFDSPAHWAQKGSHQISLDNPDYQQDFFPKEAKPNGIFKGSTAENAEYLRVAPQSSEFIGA

COc1cc(-c2cnc3c(N4CCOCC4)snc3c2)ccc1N [Example 50, 2-Methoxy-4-(3-morpholinoisothiazolo[4,3-]pyridin-6-yl)aniline]
Kd (GAK): 8.9 nM | % of control binding at 10 µM (GAK; read-out: % Ctrl): 0% | effect on HCV RNA replication (HCV RNA replication): did not affect HCV RNA replication | EC50 (cell culture grown DENV): 2600 nM | EC50 [1]: 3.2 µg/mL (≈ 9.35 µM) | EC50 [1, 5]: 2.4 µg/mL (≈ 7.01 µM) | effect on VSV-EB infection, treatment alone [2]: minimal inhibition of infection | anti-EGFR activity (EGFR): lack anti-EGFR activity | CC50 (Vero76): 13 µg/mL (≈ 38 µM) | CC50 (in vitro): 15 µg/mL (≈ 43.8 µM)

COc1cc(-c2cnc3c(N4CCOCC4)snc3c2)cc(OC)c1OC [Example 49, 4-(6-(3,4,5-Trimethoxyphenyl)isothiazolo[4,3-b]pyridin-3-yl)morpholine]
Kd (GAK): 8.3 nM | remaining binding at 10 µM (GAK; single concentration of 10 μM, lower numbers indicate stronger hits, read-out: % Ctrl): 0% | effect on HCV RNA replication (HCV RNA replication): did not affect HCV RNA replication | p-AP2M1 to AP2M1 ratios (AP2M1 phosphorylation): reduced by either 49 or 50 in a dose-dependent manner | EC50 (cell culture grown DENV): 800 nM | EC50 [1]: 0.77 µg/mL (≈ 1.99 µM) | EC50 [1, 5]: 1.2 µg/mL (≈ 3.1 µM) | anti-EGFR activity (EGFR): lack anti-EGFR activity | CC50 (Huh-7.5 cells [3]): 23300 ± 3400 nM | CC50 (Vero76): 50 µg/mL (≈ 129 µM) | CC50 (in vitro): 34 µg/mL (≈ 87.8 µM) | effect on cellular viability (Huh-7.5 cells [4]): minimal effect on cellular viability | effect on cellular viability (Huh-7 cells): minimal effect on cellular viability
